The source made the active and inactive calls.
How the values were obtained:
[1] = molecular target: T1, Sentrin-specific protease 1 (Homo sapiens, UniProt Q9P0U3); experiment: SENP1 catalytic domain blockers, concentration series – biochemical, kinetic FRET, dose response (AID 651697); type: functional; details: read-out: IC50_Mean
[2] = molecular target: T1, Sentrin-specific protease 1; experiment: Dose response confirmation of small molecule inhibitors of the catalytic domain of the SUMO protease, SENP1 in a FRET assay.; type: functional; details: read-out: IC50_Mean
[3] = viability loss in HeLa cells – cytotoxicity control for MgcRacGAP inhibitor project, dose response (AID 624300); type: functional
[4] = molecular target: T2, Rac GTPase-activating protein 1 (Homo sapiens, UniProt Q9H0H5); experiment: blockers of MgcRacGAP-driven Rac1 GTP hydrolysis – biochemical, ADP Hunter fluorescence, primary and confirmatory, confirmation (AID 624330); type: functional
T2 sequence (Q9H0H5 whole entry): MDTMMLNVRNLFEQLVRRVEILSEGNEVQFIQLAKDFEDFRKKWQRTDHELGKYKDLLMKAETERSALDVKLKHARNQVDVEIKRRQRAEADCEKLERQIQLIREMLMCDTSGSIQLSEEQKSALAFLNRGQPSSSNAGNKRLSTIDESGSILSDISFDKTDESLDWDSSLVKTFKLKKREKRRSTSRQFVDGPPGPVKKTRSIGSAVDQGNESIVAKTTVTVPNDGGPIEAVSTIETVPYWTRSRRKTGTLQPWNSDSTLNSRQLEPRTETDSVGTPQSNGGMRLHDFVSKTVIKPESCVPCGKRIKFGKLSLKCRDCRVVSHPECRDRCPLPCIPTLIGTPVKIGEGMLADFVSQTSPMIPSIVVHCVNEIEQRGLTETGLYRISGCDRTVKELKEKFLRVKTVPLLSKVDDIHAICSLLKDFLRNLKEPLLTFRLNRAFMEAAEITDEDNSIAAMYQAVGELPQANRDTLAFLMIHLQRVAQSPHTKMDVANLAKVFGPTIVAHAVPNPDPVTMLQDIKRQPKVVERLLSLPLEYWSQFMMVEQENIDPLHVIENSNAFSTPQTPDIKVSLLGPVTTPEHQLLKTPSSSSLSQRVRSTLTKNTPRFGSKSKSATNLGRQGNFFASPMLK

Cytochrome P450 2C9 = Cytochrome P450 2C9 (Homo sapiens, UniProt P11712)
Beta-lactamase [5] = molecular target: Beta-lactamase (Salmonella choleraesuis (strain SC-B67), UniProt Q5J463); experiment: Epi-absorbance-based counterscreen for selective VIM-2 inhibitors: dose response biochemical high throughput screening assay to identify inhibitors of TEM-1 serine-beta-lactamase.
Beta-lactamase [6] = molecular target: T3, Beta-lactamase (Pseudomonas aeruginosa, UniProt Q79MP6); experiment: inhibition of IMP-1 beta-lactamase activity – biochemical, epi-absorbance, selectivity assay for VIM-2 inhibitor project, dose response (AID 1920)
Beta-lactamase [7] = molecular target: T3, Beta-lactamase; experiment: […] counterscreen for selective VIM-2 inhibitors: dose response biochemical high throughput screening assay to identify inhibitors of IMP-1 metallo-beta-lactamase.
Protein S100-A4 = Protein S100-A4 (Homo sapiens, UniProt P26447); experiment: human S100A4 peptide interaction inhibition curves – biochemical, fluorescence polarization, cherry-picked hits, dose response (AID 687001); type: functional
[8] = molecular target: T4, Botulinum neurotoxin type A (Clostridium botulinum (strain Hall / ATCC 3502 / NCTC 13319 / Type A), UniProt P0DPI1); experiment: High-throughput multiplex microsphere dose response for inhibitors of toxin protease, specifically Botulinum neurotoxin light chain A protease, compounds from Powder Set 01.; type: functional, Clostridium botulinum A str. ATCC 3502; details: read-out: EC50_MICROM
[9] = molecular target: Botulinum neurotoxin type F (Clostridium botulinum, UniProt P30996); experiment: High-throughput multiplex microsphere dose response for inhibitors of toxin protease, specifically Botulinum neurotoxin light chain F protease, compounds from Powder Set 01.; type: functional, Clostridium botulinum Bf; details: read-out: EC50_MICROM
Lethal factor = Lethal factor (Bacillus anthracis, UniProt P15917); experiment: High-throughput multiplex microsphere dose response for inhibitors of toxin protease, specifically Lethal Factor protease, compounds from Powder Set 01.; type: functional, Bacillus anthracis str. A2012; details: read-out: EC50_MICROM
[10] = molecular target: T4, Botulinum neurotoxin type A; experiment: Confirmatory FRET assay using full length substrates for Botulinum neurotoxin light chain A protease, with Powder Set01.; type: functional
BJ [11] = experiment: BJ-TERT fibroblast viability loss – cell-based, RAS-independent, luminescence, dose response (AID 1933); type: functional; details: Homo sapiens
BJ [12] = experiment: BJ-TERT-LT-ST fibroblast viability loss – cell-based, RAS-independent, luminescence, dose response (AID 1935); type: functional; details: Homo sapiens;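 further: BJ fibroblasts immortalized with TERT plus LT and ST oncogenes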
[13] = DRD fibroblast viability loss – cell-based, non-viral oncogenic, luminescence, dose response (AID 1934); type: functional; details: Homo sapiens
BJ [14] = experiment: growth inhibition of engineered Ras-driven BJ cells – cell-based, alamar blue fluorescence, cherrypicked samples, dose response (AID 2631); type: functional; details: Homo sapiens;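 further: confirmatory dose-response assay in RAS-dependent BJ fibroblasts engineered with TERT, LT and ST, with cytotoxicity read by fluorescence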
[15] = reduction of Shn3 3'UTR-driven luciferase in osteoblasts – cell-based, Clone20 osteoblasts, firefly luciferase, cherry-picked, dose response (AID 624132); type: functional;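 further: firefly luciferase luminescence from reporter carrying the Shn3 3'UTR in osteoblasts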
[16] = loss of viability in HepG2 cells – cell-based, CellTiter-Glo, cherry-picked, cytotoxicity control for Shn3 inhibitor project, dose response (AID 624134); type: functional
[17] = non-specific 3'UTR reporter inhibition in Clone20-Shn3RL – cell-based, Renilla luciferase, cherry-picked, counter-screen for Shn3 inhibitor project, dose response (AID 624133); type: functional
[18] = viability loss in HEK293T cells – cell-based, cherry-picks, cytotoxicity control for HIV Vif inhibitor project, dose response (AID 652208); type: functional
[19] = activation of miR-122 Renilla sensor silencing – cell-based, Huh7 psiCHECK-miR122, Renilla luciferase, cherry-picked, dose response (AID 651956); type: functional;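 further: huh7 hepatoma cells stably carrying a psiCHECK-2 miR-122 sensor plasmid; renilla luciferase signal reporting endogenous miR-122 activity after 48 h compound exposure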
[20] = molecular target: T5, Sentrin-specific protease 8 (Homo sapiens, UniProt Q96LD8); type: functional
T5 sequence (Q96LD8 whole entry): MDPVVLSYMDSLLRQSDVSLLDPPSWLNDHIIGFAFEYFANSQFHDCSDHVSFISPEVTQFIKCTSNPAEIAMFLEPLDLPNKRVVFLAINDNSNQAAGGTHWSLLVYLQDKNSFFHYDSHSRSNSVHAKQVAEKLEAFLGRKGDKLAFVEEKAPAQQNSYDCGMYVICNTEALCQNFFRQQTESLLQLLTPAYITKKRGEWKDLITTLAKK

[21] = molecular target: T5, Sentrin-specific protease 8; type: functional; remark: listed apart in the source
Caspase-3 = molecular target: T6, Caspase-3 (Homo sapiens, UniProt P42574); experiment: Dose-response confirmation of uHTS inhibitor hits of Sentrin-Specific Protease 8 in a Caspase-3 Fluorescence assay.; type: functional
T6 sequence (P42574 whole entry): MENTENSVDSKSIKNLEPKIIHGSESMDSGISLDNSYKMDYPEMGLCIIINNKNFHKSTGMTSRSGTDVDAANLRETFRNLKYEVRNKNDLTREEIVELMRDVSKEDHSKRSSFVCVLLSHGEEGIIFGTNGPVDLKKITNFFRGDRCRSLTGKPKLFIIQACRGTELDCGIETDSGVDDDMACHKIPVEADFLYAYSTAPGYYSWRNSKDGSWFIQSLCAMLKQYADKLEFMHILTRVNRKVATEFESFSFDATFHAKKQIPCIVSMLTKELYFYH

[22] = Inhibition of T. cruzi Tulahuen strain amastigotes in L-6 muscle cells Measured in Cell-Based and Microorganism Combination System Using Plate Reader - 2138-03_Inhibitor_Dose_CherryPick_Activity.; type: functional; details: Rattus norvegicus, L6
[23] = L6 myocyte viability loss – cell-based, plate reader, cherry-pick, cytotoxicity control, dose response (AID 651896); type: functional
[24] = Inhibition of Plasmodium falciparum NF54 Measured in Cell-Based System Using Plate Reader - 2138-11_Inhibitor_Dose_CherryPick_Activity.; type: functional
[25] = antileishmanial activity on axenic amastigotes – plate reader, cherry pick, dose response (AID 651891); type: functional, cell-based; details: Leishmania donovani
[26] = African trypanosome bloodstream form growth inhibition – STIB900 strain, plate reader, cherry pick, dose response (AID 651893); type: functional, cell-based, Trypanosoma brucei rhodesiense; details: Trypanosoma brucei
[27] = mouse fibroblast viability loss – cell-based, cherry-pick samples, set 2, cytotoxicity control for T. cruzi growth inhibitor project, dose response (AID 651817); type: functional; details: NIH3T3
[28] = molecular target: Palmitoyl-protein thioesterase ABHD10, mitochondrial (Mus musculus, UniProt Q6PE15); experiment: Late stage assay provider results from the probe development effort to identify inhibitors of PME-1: fluorescence-based dose response biochemical gel-based competitive Activity-Based Protein Profiling (ABPP) inhibition of ABHD10 Set 1.; type: functional
[29] = acridine orange displacement from DNA – biochemical, fluorescence polarization, cherry-pick, artefact control for RAD54 inhibitor project, dose response (AID 651673); type: functional
[30] = molecular target: T7, DNA repair and recombination protein RAD54-like (Homo sapiens, UniProt Q92698); experiment: RAD54 Holliday junction migration blockers – biochemical, fluorescence, cherry-picked samples, dose series, confirmation (AID 651657); type: functional
T7 sequence (Q92698 whole entry): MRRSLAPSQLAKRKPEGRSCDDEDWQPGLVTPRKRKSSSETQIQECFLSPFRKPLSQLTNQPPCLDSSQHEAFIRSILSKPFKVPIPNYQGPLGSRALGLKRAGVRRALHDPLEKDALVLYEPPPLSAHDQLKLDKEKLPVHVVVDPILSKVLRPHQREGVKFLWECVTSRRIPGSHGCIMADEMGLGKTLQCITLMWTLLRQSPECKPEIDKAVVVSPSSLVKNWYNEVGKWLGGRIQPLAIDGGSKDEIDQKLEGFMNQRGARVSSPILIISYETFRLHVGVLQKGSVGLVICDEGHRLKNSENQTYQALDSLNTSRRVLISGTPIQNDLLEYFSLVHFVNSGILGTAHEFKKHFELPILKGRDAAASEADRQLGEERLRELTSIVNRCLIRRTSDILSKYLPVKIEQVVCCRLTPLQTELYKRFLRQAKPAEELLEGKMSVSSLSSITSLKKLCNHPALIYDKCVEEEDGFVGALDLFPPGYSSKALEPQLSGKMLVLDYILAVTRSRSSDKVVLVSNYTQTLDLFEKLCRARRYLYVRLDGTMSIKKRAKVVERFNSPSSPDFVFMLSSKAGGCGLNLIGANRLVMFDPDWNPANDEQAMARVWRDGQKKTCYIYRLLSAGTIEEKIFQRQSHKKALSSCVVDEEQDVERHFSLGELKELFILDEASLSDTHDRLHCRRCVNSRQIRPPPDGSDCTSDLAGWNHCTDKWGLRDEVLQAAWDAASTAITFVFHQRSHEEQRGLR

[31] = molecular target: T8, DNA repair protein RAD52 homolog (Homo sapiens, UniProt P43351); type: functional, biochemical
T8 sequence (P43351 whole entry): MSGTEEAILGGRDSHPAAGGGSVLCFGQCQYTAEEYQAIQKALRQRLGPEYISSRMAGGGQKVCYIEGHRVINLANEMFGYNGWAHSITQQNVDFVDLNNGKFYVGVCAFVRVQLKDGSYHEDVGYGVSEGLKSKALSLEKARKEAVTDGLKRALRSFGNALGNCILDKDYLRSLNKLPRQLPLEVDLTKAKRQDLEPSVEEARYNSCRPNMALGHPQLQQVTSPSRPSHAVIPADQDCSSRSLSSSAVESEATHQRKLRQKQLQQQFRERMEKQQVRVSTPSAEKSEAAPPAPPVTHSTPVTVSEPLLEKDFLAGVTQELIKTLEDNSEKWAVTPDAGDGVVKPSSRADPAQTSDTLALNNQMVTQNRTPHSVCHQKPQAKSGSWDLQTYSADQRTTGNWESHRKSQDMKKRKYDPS

T4 sequence (P0DPI1 2-448 limits assumed): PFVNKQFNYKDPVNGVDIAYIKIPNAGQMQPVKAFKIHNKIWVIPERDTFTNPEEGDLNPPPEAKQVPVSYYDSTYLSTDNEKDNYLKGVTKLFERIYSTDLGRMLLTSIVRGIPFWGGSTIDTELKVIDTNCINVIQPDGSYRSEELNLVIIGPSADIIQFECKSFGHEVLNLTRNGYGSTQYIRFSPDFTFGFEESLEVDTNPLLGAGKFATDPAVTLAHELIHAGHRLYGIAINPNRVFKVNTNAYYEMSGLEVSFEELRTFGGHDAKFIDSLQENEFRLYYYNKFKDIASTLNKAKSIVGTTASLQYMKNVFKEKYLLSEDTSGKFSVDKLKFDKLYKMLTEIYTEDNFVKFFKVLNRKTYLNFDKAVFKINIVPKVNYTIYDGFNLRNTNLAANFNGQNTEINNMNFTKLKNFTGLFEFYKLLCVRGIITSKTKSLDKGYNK
T3 sequence (Q79MP6 whole entry): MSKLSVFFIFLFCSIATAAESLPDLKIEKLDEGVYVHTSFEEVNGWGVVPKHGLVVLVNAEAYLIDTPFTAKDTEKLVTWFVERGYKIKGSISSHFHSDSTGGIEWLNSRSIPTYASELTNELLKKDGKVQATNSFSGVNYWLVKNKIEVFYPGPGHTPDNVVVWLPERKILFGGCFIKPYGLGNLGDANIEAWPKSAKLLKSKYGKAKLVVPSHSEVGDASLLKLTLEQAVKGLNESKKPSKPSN
T1 sequence (Q9P0U3 whole entry, the tested form may be a part): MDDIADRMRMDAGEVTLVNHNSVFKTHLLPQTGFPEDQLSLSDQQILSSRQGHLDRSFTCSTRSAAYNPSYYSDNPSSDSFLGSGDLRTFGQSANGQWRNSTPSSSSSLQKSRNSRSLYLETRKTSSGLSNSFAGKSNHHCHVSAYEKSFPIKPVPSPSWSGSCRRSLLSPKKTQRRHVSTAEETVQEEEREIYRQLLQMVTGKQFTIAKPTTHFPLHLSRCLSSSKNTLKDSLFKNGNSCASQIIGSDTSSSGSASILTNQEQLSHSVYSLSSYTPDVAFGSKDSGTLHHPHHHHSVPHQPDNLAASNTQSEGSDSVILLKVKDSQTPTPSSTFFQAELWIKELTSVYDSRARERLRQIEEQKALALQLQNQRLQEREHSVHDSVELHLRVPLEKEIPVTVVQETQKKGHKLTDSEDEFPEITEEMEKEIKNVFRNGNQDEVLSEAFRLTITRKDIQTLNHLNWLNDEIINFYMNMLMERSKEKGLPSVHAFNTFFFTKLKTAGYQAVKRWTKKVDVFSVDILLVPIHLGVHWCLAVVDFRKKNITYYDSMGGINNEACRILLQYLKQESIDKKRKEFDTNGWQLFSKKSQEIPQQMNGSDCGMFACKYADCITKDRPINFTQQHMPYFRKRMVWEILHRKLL
Cytochrome P450 2C9, sequence (P11712 whole entry): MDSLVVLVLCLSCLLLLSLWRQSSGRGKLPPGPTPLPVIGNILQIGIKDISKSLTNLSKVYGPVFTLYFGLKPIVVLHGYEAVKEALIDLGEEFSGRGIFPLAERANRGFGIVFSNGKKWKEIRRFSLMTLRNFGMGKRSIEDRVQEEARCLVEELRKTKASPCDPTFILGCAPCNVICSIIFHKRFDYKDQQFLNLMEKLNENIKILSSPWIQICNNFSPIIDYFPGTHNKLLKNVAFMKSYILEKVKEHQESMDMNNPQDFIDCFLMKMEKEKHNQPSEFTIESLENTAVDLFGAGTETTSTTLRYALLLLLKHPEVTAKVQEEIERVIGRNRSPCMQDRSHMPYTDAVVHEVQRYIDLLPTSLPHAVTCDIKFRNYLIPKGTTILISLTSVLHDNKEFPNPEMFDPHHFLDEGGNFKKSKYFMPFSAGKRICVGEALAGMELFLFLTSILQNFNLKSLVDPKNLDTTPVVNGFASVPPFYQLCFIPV
Palmitoyl-protein thioesterase ABHD10, mitochondrial, sequence (Q6PE15 whole entry): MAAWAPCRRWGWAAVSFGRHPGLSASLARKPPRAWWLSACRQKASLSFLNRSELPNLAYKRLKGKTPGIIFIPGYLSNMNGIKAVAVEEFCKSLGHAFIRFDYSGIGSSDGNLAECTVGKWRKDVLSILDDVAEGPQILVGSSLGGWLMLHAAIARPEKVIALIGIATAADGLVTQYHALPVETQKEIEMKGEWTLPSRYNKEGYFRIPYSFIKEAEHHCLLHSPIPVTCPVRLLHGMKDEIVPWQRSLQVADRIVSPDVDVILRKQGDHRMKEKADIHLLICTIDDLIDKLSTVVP
Beta-lactamase (Salmonella choleraesuis (strain SC-B67), UniProt Q5J463), sequence (Q5J463 whole entry): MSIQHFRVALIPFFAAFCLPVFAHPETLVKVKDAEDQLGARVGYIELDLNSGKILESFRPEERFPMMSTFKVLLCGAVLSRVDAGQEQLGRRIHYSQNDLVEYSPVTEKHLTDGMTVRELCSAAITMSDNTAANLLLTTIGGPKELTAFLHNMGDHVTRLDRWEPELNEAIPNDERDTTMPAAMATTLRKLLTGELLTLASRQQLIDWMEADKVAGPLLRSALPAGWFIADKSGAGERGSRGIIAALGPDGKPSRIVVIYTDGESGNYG
Lethal factor, sequence (P15917 whole entry): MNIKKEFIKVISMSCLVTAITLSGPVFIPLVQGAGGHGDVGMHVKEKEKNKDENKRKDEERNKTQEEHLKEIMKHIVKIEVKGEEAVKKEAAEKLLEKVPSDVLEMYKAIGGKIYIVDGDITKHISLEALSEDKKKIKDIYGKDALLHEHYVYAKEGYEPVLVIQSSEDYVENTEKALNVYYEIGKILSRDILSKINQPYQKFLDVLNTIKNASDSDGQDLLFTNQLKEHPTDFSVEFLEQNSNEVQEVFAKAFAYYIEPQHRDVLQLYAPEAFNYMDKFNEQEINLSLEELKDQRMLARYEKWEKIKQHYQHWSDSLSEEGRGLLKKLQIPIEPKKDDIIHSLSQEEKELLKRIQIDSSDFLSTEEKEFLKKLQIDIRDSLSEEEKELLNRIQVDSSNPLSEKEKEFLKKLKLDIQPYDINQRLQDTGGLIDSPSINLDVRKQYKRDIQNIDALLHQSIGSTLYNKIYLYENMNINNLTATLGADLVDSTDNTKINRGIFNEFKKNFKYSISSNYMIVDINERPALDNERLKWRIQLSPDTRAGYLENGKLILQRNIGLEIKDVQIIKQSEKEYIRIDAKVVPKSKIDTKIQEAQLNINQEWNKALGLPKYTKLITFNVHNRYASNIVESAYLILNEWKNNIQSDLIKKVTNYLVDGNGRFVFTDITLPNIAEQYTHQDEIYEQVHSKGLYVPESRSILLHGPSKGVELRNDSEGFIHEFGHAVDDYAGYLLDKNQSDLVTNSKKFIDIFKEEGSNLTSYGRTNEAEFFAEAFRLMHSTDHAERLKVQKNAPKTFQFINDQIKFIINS
Protein S100-A4, sequence (P26447 whole entry): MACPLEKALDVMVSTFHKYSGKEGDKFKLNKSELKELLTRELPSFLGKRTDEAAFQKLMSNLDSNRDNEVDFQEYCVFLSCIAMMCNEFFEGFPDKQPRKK
Botulinum neurotoxin type F, sequence (P30996 1-436 limits assumed): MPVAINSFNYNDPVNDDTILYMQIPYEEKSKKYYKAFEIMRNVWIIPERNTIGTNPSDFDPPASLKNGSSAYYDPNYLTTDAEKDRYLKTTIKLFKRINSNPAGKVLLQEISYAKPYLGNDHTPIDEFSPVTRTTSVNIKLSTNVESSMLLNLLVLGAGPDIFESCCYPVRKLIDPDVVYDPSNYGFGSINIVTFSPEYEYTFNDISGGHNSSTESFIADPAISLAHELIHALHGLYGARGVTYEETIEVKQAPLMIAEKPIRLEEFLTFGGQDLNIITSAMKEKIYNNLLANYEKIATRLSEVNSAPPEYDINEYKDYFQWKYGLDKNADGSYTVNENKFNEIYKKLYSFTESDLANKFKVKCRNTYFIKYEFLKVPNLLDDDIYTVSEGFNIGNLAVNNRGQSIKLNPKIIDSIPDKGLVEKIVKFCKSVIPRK

COc1cc([C@H]2c3c(cc(OC)c(O)c3OC)C[C@@H](CO)[C@@H]2CO[C@@H]2O[C@H](CO)[C@@H](O)[C@H](O)[C@H]2O)cc(OC)c1O
IC50 [1]: 24.4 µM (inactive)
IC50 [2]: 14.2 µM (active)

CN(C)CCCN1c2ccc3ccccc3c2Sc2cccc(Cl)c21
CC50 [3]: 42.8 µM (active)
IC50 [4]: 48.9 µM (active)
AC50 (Cytochrome P450 2C9): 7.94 µM (inconclusive)

CCCCn1c(S)nnc1-c1nn(C)cc1Cl
IC50 (Beta-lactamase [5]): > 59.6 µM (inactive)
IC50 (Beta-lactamase [6]): > 59.6 µM (inactive)
IC50 (Beta-lactamase [7]): > 59.6 µM (inactive)

O=C1C(N2CCOCC2)=Cc2cccc3cccc1c23
AC50 (Protein S100-A4): 1.09 µM (active)

Cc1ccc(-c2cn3nc(-c4ccccc4)c(-c4ccccc4)nc3n2)cc1
EC50 [8]: 1.5 µM (active)
EC50 [9]: 9.1 µM (active)
EC50 (Lethal factor): 2 µM (active)
EC50 [10]: 2.5 µM (active)

CCOc1cc(/C=C2\CN(CC)C/C(=C\c3ccc(O)c(OCC)c3)C2=O)ccc1O
EC50 (BJ [11]): 4.09 µM (active)
EC50 (BJ [12]): 3.15 µM (inconclusive)
EC50 [13]: 3.65 µM (active)
EC50 (BJ [14]): 0.583 µM (active)
AC50 [15]: 2.12 µM (active)
AC50 [16]: 9.14 µM (active)
AC50 [17]: 12.5 µM (active)
IC50 [4]: 46.6 µM (active)
AC50 [18]: 14.7 µM (active)

C[C@@H]1CN([C@H](C)CO)S(=O)(=O)c2ccc(/C=C/c3ccccc3)cc2O[C@@H]1CN(C)C(=O)c1cccnc1
AC50 [19]: 2.93 µM (active)

CCC(CO)Oc1cc(NCc2cccc(C)c2)c2ncn(C(C)C)c2c1 (stereo unspecified)
IC50 [20]: 14 µM (active)
IC50 [21]: 12.6 µM (active)
IC50 (Caspase-3): 46.6 µM (active)

C[C@@H]1CN([C@H](C)CO)C(=O)c2cccc(NC(=O)c3ccncc3)c2O[C@@H]1CN(C)Cc1ccc(Cl)c(Cl)c1
IC50 [22]: 5.59 µM (inactive)
IC50 [23]: > 100 µM (inactive)
IC50 [24]: 5.59 µM (inactive)
IC50 [25]: > 100 µM (inactive)
IC50 [26]: 11.1 µM (inactive)

Cc1ccc(S(=O)(=O)N(C)C[C@@H]2Oc3c(NC(=O)c4nc5ccccc5s4)cccc3C(=O)N([C@H](C)CO)C[C@@H]2C)cc1
AC50 [27]: 24.8 µM (active)

CCCOC(=O)N1C(=O)[C@@](CC)(c2ccc(C)cc2)N1C(=O)OCCC
IC50 [28]: 0.012 µM (active)

COc1ccc(-c2nc(NCCCN(C)C)c3ccccc3n2)cc1
AC50 [29]: 46.8 µM (active)
AC50 [30]: 6 µM (active)
AC50 [31]: 2.39 µM (active)

From ChEMBL document CHEMBL1201862, “PubChem BioAssay data set” (2004)
